Test results as given in patent publication US20050080570A1, “Predicting probabilities of achieving a desired minimum trough level for an anti-infective agent” (priority 2003, published 2005).
Like-named read-outs stand apart in the source and are kept apart here.

Tests used:
[1] = 100% human serum; fourth study; cited from earlier work
[2] = average value across the studies

Protein-binding correction factor, Average (human) | Protein-binding correction factor, Average [2] | SMILES | Protein-binding correction factor, 100% HS [1]
23.4 | – | CC(C)(C)NC(=O)[C@@H]1C[C@@H]2CCCC[C@@H]2CN1C[C@@H](O)[C@H](Cc1ccccc1)NC(=O)[C@H](CC(N)=O)NC(=O)c1ccc2ccccc2n1 [SQV, Saquinavir] | –
– | 1.3 | Cc1ccnc2c1NC(=O)c1cccnc1N2C1CC1 [NVP, Nevirapine] | 1.2
– | 18.4 | O=C1Nc2ccc(Cl)cc2[C@@](C#CC2CC2)(C(F)(F)F)O1 [EFV, Efavirenz] | 25.5
– | 46.1 | Cc1c(O)cccc1C(=O)N[C@@H](CSc1ccccc1)[C@H](O)CN1C[C@H]2CCCC[C@H]2C[C@H]1C(=O)NC(C)(C)C [NFV, Nelfinavir] | 90.6
